Results on 4 compounds are retold here after patent publication US7256187B2, “Rifamycin C-11 oxime derivatives effective against drug-resistant microbes” (Cumbre Pharmaceuticals Inc., priority 2004, dated 2007).

Structures are written as SMILES. Converted amounts (≈) assume the structure as drawn.

What all share (assay type): cell-based
Test [1] deals with Staphylococcus aureus ATCC29213. Kind of test: MIC, microbroth dilution. The note with it: Staphylococcus aureus ATCC29213, rifS; read-out: Antimicrobial activity (MIC). In general terms: Dilution methods test growth across graded concentrations, often in twofold steps.
For test [2], the system named is Staphylococcus aureus ATCC29213 rpoB^D417Y. Kind of test: microbe, parasite or virus in culture. The note with it: Staphylococcus aureus ATCC29213 rpoB^D417Y, rifR; read-out: Antimicrobial activity (MIC). As to the method: (§1) Representative compounds were assayed for antimicrobial activity as follows: Minimum Inhibitory Concentrations (“MICs”) were determined by the microbroth dilution method as per NCCLS guidelines (National Committee for Clinical Laboratory Standards. 2000. Methods for dilution antimicrobial susceptibility tests for bacteria that grow aerobically, 5th ed. M7-A5. National Committee for Clinical Laboratory Standards, Wayne, Pa.), except that all growth incubations were conducted at 37° C. Bacterial cultures were tested in the following bacteriological media: S. aureus, S. epidermidis, and E. coli in Cation-Adjusted Mueller-Hinton Broth, S. pneumoniae in THY Broth supplemented with 1 mg/mL catalase under 5% CO2 atmosphere, S. pyogenes in THY Broth, E. faecalis in BHI Broth, H. influenzae in BHI Broth supplemented with 0.75 μL of 1 mg/mL NAD and 150 μL of 1 mg/ml hematin per 5 mL, and M. smegmatis in Middlebrook Broth plus ADC Enrichment.
(§2) S. aureus ATCC 29213 RpoB^H418Y is a rifampin-resistant strain with a mutation in the RpoB gene of RNA polymerase. […] S. aureus EN1252a gyrA^S84L grlA^S80F is a quinolone-resistant strain due to double gene mutations of DNA gyrase and topoisomerase IV.

Test [3] relates to Staphylococcus aureus ATCC29213 rpoB^H418Y. Kind of test: microbe, parasite or virus in culture. To be noted: Staphylococcus aureus ATCC29213 rpoB^H418Y, rifR; read-out: Antimicrobial activity (MIC). As to the method: as §1, §2
Test [4] concerns Staphylococcus aureus EN1252a gyrA^S84L grlA^S80F. Put plainly: microbe, parasite or virus in culture. To be noted: Staphylococcus aureus EN1252a gyrA^S84L grlA^S80F, cipR; read-out: Antimicrobial activity (MIC). As to the method:
as §1, §2

For test [5], the system named is Staphylococcus epidermidis ATCC12228. Put plainly: MIC, microbroth dilution. The note with it: Staphylococcus epidermidis ATCC12228, rifS; read-out: Antimicrobial activity (MIC).
The test system of test [6] is Streptococcus pneumoniae ATCC6303. Put plainly: MIC, microbroth dilution. To be noted: Streptococcus pneumoniae ATCC6303, rifS; read-out: Antimicrobial activity (MIC).
In test [7] the test system is Streptococcus pyogenes ATCC19615. Kind of test: MIC, microbroth dilution. To be noted: Streptococcus pyogenes ATCC19615, rifS; read-out: Antimicrobial activity (MIC).
Test [8] deals with Enterococcus faecalis ATCC29212. Put plainly: MIC, microbroth dilution. The note with it: Enterococcus faecalis ATCC29212, rifS; read-out: Antimicrobial activity (MIC).
Test [9] concerns Haemophilus influenzae ATCC10211. Put plainly: MIC, microbroth dilution. To be noted: Haemophilus influenzae ATCC10211, rifS; read-out: Antimicrobial activity (MIC).
The test system of test [10] is Escherichia coli ATCC25922. Kind of test: MIC, microbroth dilution. The note with it: Escherichia coli ATCC25922, rifS; read-out: Antimicrobial activity (MIC).
Test [11] concerns Mycobacterium smegmatis ATCC700084. Kind of test: MIC, microbroth dilution. To be noted: Mycolicibacterium smegmatis; Mycobacterium smegmatis ATCC700084, rifS; read-out: Antimicrobial activity (MIC).

`CO[C@H]1/C=C/O[C@@]2(C)Oc3c(C)c(O)c4c(c3/C2=N/OCCN2CCOCC2)C(=O)C=C(NC(=O)/C(C)=C\C=C\[C@H](C)[C@H](O)[C@@H](C)[C@@H](O)[C@@H](C)[C@H](OC(C)=O)[C@@H]1C)C4=O` [Example 24]: the MIC lay in the range of 0.004 to 0.5 µg/mL (≈ 0.00485 to 0.607 µM) in test [1]; 0.25 to 32 µg/mL (≈ 0.303 to 38.8 µM) in test [2]; 0.125 to 16 µg/mL (≈ 0.152 to 19.4 µM) in [3]; 0.004 to 0.5 µg/mL (≈ 0.00485 to 0.607 µM) in test [4]; 0.0005 to 0.063 µg/mL (≈ 0.000607 to 0.0765 µM) in test [5]; 0.0002 to 0.125 µg/mL (≈ 0.000243 to 0.152 µM) in test [6]. Besides, the MIC fell in the range of 0.0005 to 0.063 µg/mL (≈ 0.000607 to 0.0765 µM) in test [7]; 2 to 32 µg/mL (≈ 2.43 to 38.8 µM) in [8]; 0.03 to 2 µg/mL (≈ 0.0364 to 2.43 µM) in test [9]; 0.125 to 8 µg/mL (≈ 0.152 to 9.71 µM) in [10]; 0.5 to 64 µg/mL (≈ 0.607 to 77.7 µM) in test [11].

`CO[C@H]1/C=C/O[C@@]2(C)Oc3c(C)c(O)c4c(c3/C2=N/OCCN2CCN(Cc3ccccc3)CC2)C(=O)C=C(NC(=O)/C(C)=C\C=C\[C@H](C)[C@H](O)[C@@H](C)[C@@H](O)[C@@H](C)[C@H](OC(C)=O)[C@@H]1C)C4=O` [Example 25, 11-Deoxy-11-[2-(4-benzylpiperazin-1-yl)ethoxyimino]rifamycin S]: the MIC in [1] fell in the range of 0.004 to 0.5 µg/mL (≈ 0.00438 to 0.548 µM); in [2], 0.25 to 32 µg/mL (≈ 0.274 to 35 µM); in [3], 0.125 to 16 µg/mL (≈ 0.137 to 17.5 µM); in test [4] it was 0.004 to 0.5 µg/mL (≈ 0.00438 to 0.548 µM); in test [5], 0.0005 to 0.063 µg/mL (≈ 0.000548 to 0.069 µM); in test [6], 0.0002 to 0.125 µg/mL (≈ 0.000219 to 0.137 µM). Further, the MIC in test [7] fell in the range of 0.0005 to 0.063 µg/mL (≈ 0.000548 to 0.069 µM); in test [8], 2 to 32 µg/mL (≈ 2.19 to 35 µM); in [9] it was 0.03 to 2 µg/mL (≈ 0.0329 to 2.19 µM); in [10] it was 0.125 to 8 µg/mL (≈ 0.137 to 8.76 µM); in [11] it was 0.5 to 64 µg/mL (≈ 0.548 to 70.1 µM).

For the compound `CO[C@H]1/C=C/O[C@@]2(C)Oc3c(C)c(O)c4c(c3/C2=N/OCCN2CCN(c3ccccc3O)CC2)C(=O)C=C(NC(=O)/C(C)=C\C=C\[C@H](C)[C@H](O)[C@@H](C)[C@@H](O)[C@@H](C)[C@H](OC(C)=O)[C@@H]1C)C4=O` [Example 26, 11-Deoxy-11-{2-[4-(2-hydroxy-phenyl)piperazin-1-yl]ethoxyimino}rifamycin S], the MIC in test [1] is 0.004 to 0.5 µg/mL (≈ 0.00437 to 0.546 µM); in test [2], 0.25 to 32 µg/mL (≈ 0.273 to 35 µM); in test [3], 0.125 to 16 µg/mL (≈ 0.137 to 17.5 µM); in test [4], 0.004 to 0.5 µg/mL (≈ 0.00437 to 0.546 µM); in [5] it was 0.0005 to 0.063 µg/mL (≈ 0.000546 to 0.0688 µM); in [6], 0.0002 to 0.125 µg/mL (≈ 0.000219 to 0.137 µM). The MIC in test [7] was 0.0005 to 0.063 µg/mL (≈ 0.000546 to 0.0688 µM); in [8] it was 2 to 32 µg/mL (≈ 2.19 to 35 µM); in test [9] it was 0.03 to 2 µg/mL (≈ 0.0328 to 2.19 µM); in [10] it was 0.125 to 8 µg/mL (≈ 0.137 to 8.74 µM); in [11] it was 0.5 to 64 µg/mL (≈ 0.546 to 69.9 µM).

For `CO[C@H]1/C=C/O[C@@]2(C)Oc3c(C)c(O)c4c(c3/C2=N/O)C(=O)C(CO)=C(NC(=O)/C(C)=C\C=C\[C@H](C)[C@H](O)[C@@H](C)[C@@H](O)[C@@H](C)[C@H](OC(C)=O)[C@@H]1C)C4=O` [Example 27], the MIC in test [1] was in the range of 0.004 to 0.5 µg/mL (≈ 0.0054 to 0.675 µM); in test [2], 0.25 to 32 µg/mL (≈ 0.337 to 43.2 µM); in [3], 0.125 to 16 µg/mL (≈ 0.169 to 21.6 µM); in test [4] it was 0.004 to 0.5 µg/mL (≈ 0.0054 to 0.675 µM); in [5], 0.0005 to 0.063 µg/mL (≈ 0.000675 to 0.085 µM); in [6] it was 0.0002 to 0.125 µg/mL (≈ 0.00027 to 0.169 µM). Also, the MIC in [7] lay within 0.0005 to 0.063 µg/mL (≈ 0.000675 to 0.085 µM); in [8], 2 to 32 µg/mL (≈ 2.7 to 43.2 µM); in test [9], 0.03 to 2 µg/mL (≈ 0.0405 to 2.7 µM); in test [10] it was 0.125 to 8 µg/mL (≈ 0.169 to 10.8 µM); in test [11] it was 0.5 to 64 µg/mL (≈ 0.675 to 86.4 µM).
